The results in this text go back to patent publication US8173841B2, “Tetrahydro-naphthalene derivatives” (Xention Limited, priority 2003, dated 2012).

The structures appear in SMILES notation.

For series [1], the target named is T1, human VR1 (Homo sapiens, UniProt Q8NER1).
T1 construct: expressed in transfected cells
The series can be described thus: Capsaicin-induced Ca2+ influx in the human VR1-transfected CHO cell line (Assay 1). The format is cell-based. The note with it: human VR1-CHOluc9aeq cells, stimulation with 10 nM capsaicin, Fluo-3 AM / FDSS-3000; compounds of purity about 40 to 90%; read-out: Activity Class (IC50 of capsaicin-induced Ca2+ influx). The source says:
[Measurement of Capsaicin-Induced Ca^2+ Influx in the Human VR1-Transfected CHO Cell Line] (Assay 1)
(1) Establishment of the Human VR1-CHOluc9aeq Cell Line
Human vanilloid receptor (hVR1) cDNA was cloned from libraries of axotomized dorsal root ganglia (WO 00/29577). The cloned hVR1 cDNA was constructed with pcDNA3 vector and transfected into a CHOluc9aeq cell line. The cell line contains aequorin and CRE-luciferase reporter genes as read-out signals. The transfectants were cloned by limiting dilution in selection medium (DMEM/F12 medium (Gibco BRL) supplemented with 10% FCS, 1.4 mM Sodium pyruvate, 20 mM HEPES, 0.15% Sodium bicarbonate, 100 U/ml penicillin, 100 μg/ml streptomycin, 2 mM glutamine, non-essential amino acids and 2 mg/ml G418). Ca^2+ influx was examined in the capsaicin-stimulated clones. A high responder clone was selected and used for further experiments in the project. The human VR1-CHOluc9aeq cells were maintained in the selection medium and passaged every 3-4 days at 1−2.5×10^5 cells/flask ([…]).
(2) Measurement of Ca^2+ influx using FDSS-3000
Human VR1-CHOluc9aeq cells were suspended in a culture medium which is the same as the selection medium except for G418 and seeded at a density of 1,000 cells per well into 384-well plates (black walled clear-base/Nalge Nunc International). Following the culture for 48 hrs the medium was changed to 2 μM Fluo-3 AM (Molecular Probes) and 0.02% Puronic F-127 in assay buffer (Hank's balanced salt solution (HBSS), 17 mM HEPES (pH7.4), 1 mM Probenecid, 0.1% BSA) and the cells were incubated for 60 min at 25° C. After washing twice with assay buffer the cells were incubated with a test compound or vehicle for 20 min at 25° C. Mobilization of cytoplasmic Ca^2+ was measured by FDSS-3000 (λex=488 nm, λem=540 nm/Hamamatsu Photonics) for 60 sec after the stimulation with 10 nM capsaicin. Integral R was calculated and compared with controls.
The data corresponds to the compounds as yielded by solid phase synthesis and thus to levels of purity of about 40 to 90%. For practical reasons, the compounds are grouped in four classes of activity as follows: IC50=A (< or =) 0.1 μM<B (< or =) 0.5 μM<C (< or =) 1 μM<D

T1 sequence (Q8NER1 whole entry): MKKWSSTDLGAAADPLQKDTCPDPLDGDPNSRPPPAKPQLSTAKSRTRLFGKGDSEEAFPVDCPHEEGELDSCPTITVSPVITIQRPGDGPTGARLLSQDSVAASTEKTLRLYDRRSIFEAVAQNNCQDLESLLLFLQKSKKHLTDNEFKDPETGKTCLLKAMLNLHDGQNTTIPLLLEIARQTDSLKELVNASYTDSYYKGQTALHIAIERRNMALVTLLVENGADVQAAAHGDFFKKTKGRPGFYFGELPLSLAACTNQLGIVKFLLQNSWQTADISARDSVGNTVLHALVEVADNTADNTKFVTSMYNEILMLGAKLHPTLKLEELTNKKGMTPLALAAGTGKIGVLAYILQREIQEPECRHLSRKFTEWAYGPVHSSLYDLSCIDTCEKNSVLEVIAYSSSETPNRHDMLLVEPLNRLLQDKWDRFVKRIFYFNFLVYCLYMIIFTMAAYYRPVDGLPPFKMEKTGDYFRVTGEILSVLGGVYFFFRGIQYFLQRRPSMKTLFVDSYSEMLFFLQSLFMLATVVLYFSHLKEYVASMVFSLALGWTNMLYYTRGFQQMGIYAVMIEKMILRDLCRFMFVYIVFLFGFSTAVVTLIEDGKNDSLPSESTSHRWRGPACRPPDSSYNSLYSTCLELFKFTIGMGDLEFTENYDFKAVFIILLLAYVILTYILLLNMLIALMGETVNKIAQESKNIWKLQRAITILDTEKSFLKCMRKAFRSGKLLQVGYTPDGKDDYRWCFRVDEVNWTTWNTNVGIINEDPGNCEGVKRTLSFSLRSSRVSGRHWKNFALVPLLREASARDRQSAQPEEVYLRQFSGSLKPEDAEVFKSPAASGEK

In turn, `Cc1ccc(-c2cccc(NC(=O)Nc3cccc4c3CC(O)CC4)c2)cc1` (stereo not drawn) [Example 1-1, N-(7-Hydroxy-5,6,7,8-tetrahydronaphthalen-1-yl)-N′-(4′-methylbiphenyl-3-yl)urea] had a melting point of 217 to 219 °C. Also, the IC50 in series [1] is < 100 nM.
Taken in the same sequence, the figures for `CCOC(=O)c1ccc(-c2cccc(NC(=O)Nc3cccc4c3CC(O)CC4)c2)cc1` (stereo not drawn) [Example 1-2] were 198 to 200 °C and < 100 nM.
For `O=C(Nc1cccc(-c2ccc(Cl)c(F)c2)c1)Nc1cccc2c1CC(O)CC2` (stereo not drawn) [Example 1-3] the same measures were 94 to 96 °C and < 100 nM.
Taken in the same sequence, the figures for `O=C(Nc1cccc(-c2ccc(C(=O)O)cc2)c1)Nc1cccc2c1CC(O)CC2` (stereo not drawn) [Example 1-4] were 281 to 284 °C and < 100 nM.
The compound `O=C(Nc1cccc(-c2ccc(F)cc2F)c1)Nc1cccc2c1CC(O)CC2` (stereo not drawn) [Example 1-5] gave a melting point of 187 to 189 °C. Also, the half-maximal inhibitory concentration (IC50) in series [1] was < 100 nM.
Regarding `CCOC(=O)c1cccc(-c2cccc(NC(=O)Nc3cccc4c3CC(O)CC4)c2)c1` (stereo not drawn) [Example 1-6], the melting point fell in the range of 142 to 144 °C. Moreover, in series [1], the IC50 is < 100 nM.
In the case of `O=C(Nc1cccc(-c2ccc(C(F)(F)F)cc2)c1)Nc1cccc2c1CC(O)CC2` (stereo not drawn) [Example 1-7], the IC50 in series [1] is < 100 nM.
On the same count and under the same terms, the same measure for `O=C(Nc1cccc(-c2ccccc2Cl)c1)Nc1cccc2c1CC(O)CC2` (stereo not drawn) [Example 1-8]: < 100 nM; for `O=C(Nc1cccc(-c2ccccc2C(F)(F)F)c1)Nc1cccc2c1CC(O)CC2` (stereo not drawn) [Example 1-9]: < 100 nM; for `CSc1ccc(-c2cccc(NC(=O)Nc3cccc4c3CC(O)CC4)c2)cc1` (stereo not drawn) [Example 1-10]: < 100 nM.
Same read-out and setting: the same measure for `O=C(Nc1cccc(-c2cc(F)cc(F)c2)c1)Nc1cccc2c1CC(O)CC2` (stereo not drawn) [Example 1-11]: < 100 nM.
`Cc1cc(C)cc(-c2cccc(NC(=O)Nc3cccc4c3CC(O)CC4)c2)c1` (stereo not drawn) [Example 1-12]: the melting point turned out to be 221 °C. Also, in series [1], the IC50 is < 100 nM.
For `COc1cccc(-c2cccc(NC(=O)Nc3cccc4c3CC(O)CC4)c2)c1` (stereo not drawn) [Example 1-13] the same measures were 204 °C and < 100 nM.
For `COc1ccc(-c2cccc(NC(=O)Nc3cccc4c3CC(O)CC4)c2)cc1` (stereo not drawn) [Example 1-14] the same measures were 203 °C and < 100 nM.
As to `COc1ccc(OC)c(-c2cccc(NC(=O)Nc3cccc4c3CC(O)CC4)c2)c1` (stereo not drawn) [Example 1-15], the melting point came to 190 °C. Besides, the IC50 in series [1] is < 100 nM.
`O=C(Nc1cccc(-c2ccc(F)cc2)c1)Nc1cccc2c1CC(O)CC2` (stereo not drawn) [Example 1-16]: the melting point stood at 228 °C. Moreover, the IC50 in series [1] was < 100 nM.
Taken in the same sequence, the figures for `O=C(Nc1cccc(-c2ccc(F)c(F)c2)c1)Nc1cccc2c1CC(O)CC2` (stereo not drawn) [Example 1-17] were 216 °C and < 100 nM.
For `O=C(Nc1cccc(-c2cccc(Cl)c2)c1)Nc1cccc2c1CC(O)CC2` (stereo not drawn) [Example 1-18] the same measures were 209 °C and < 100 nM.
On to `O=C(Nc1cccc(-c2cc(Cl)cc(Cl)c2)c1)Nc1cccc2c1CC(O)CC2` (stereo not drawn) [Example 1-19], for which the melting point was found to be 221 °C. The IC50 in series [1] was < 100 nM.
Take `O=C(Nc1cccc(-c2cccc(Cl)c2Cl)c1)Nc1cccc2c1CC(O)CC2` (stereo not drawn) [Example 1-20]: the melting point is 204 °C. Further, the IC50 in series [1] is < 100 nM.
With `O=C(Nc1cccc(-c2ccc(Cl)cc2Cl)c1)Nc1cccc2c1CC(O)CC2` (stereo not drawn) [Example 1-21], the melting point came out at 208 °C. Also, the IC50 in series [1] was < 100 nM.
The compound `O=C(Nc1cccc(-c2cc(Cl)ccc2Cl)c1)Nc1cccc2c1CC(O)CC2` (stereo not drawn) [Example 1-22] displayed a melting point of 209 °C. In series [1], the IC50 is < 100 nM.
Taken in the same sequence, the figures for `O=C(Nc1cccc(-c2cccc(C(F)(F)F)c2)c1)Nc1cccc2c1CC(O)CC2` (stereo not drawn) [Example 1-23] were 210 °C and < 100 nM.
Taken in the same sequence, the figures for `O=C(Nc1cccc(-c2cccc(OC(F)(F)F)c2)c1)Nc1cccc2c1CC(O)CC2` (stereo not drawn) [Example 1-24] were 195 °C and < 100 nM.
Taken in the same sequence, the figures for `O=C(Nc1cccc(-c2ccc(OC(F)(F)F)cc2)c1)Nc1cccc2c1CC(O)CC2` (stereo not drawn) [Example 1-25] were 210 °C and < 100 nM.
Compound `CN(C)c1ccc(-c2cccc(NC(=O)Nc3cccc4c3CC(O)CC4)c2)cc1` (stereo not drawn) [Example 1-26] registered a melting point of 215 °C. The IC50 in series [1] is < 100 nM.
Taken in the same sequence, the figures for `CC(=O)c1ccc(-c2cccc(NC(=O)Nc3cccc4c3CC(O)CC4)c2)cc1` (stereo not drawn) [Example 1-27] were 216 °C and < 100 nM.
For `O=C(Nc1cccc(-c2cccc([N+](=O)[O-])c2)c1)Nc1cccc2c1CC(O)CC2` (stereo not drawn) [Example 1-28] the same measures were 238 °C and < 100 nM.
Turning to `O=C(Nc1cccc(-c2ccc(OCCN3CCOCC3)cc2)c1)Nc1cccc2c1CC(O)CC2` (stereo not drawn) [Example 1-29], in series [1], the IC50 is < 100 nM.
For the compound `CN(C)c1ccc(-c2ccc(CNC(=O)Nc3cccc4c3CC(O)CC4)cc2)cc1` (stereo not drawn) [Example 1-30], the melting point was 205 to 206 °C. Moreover, the IC50 in series [1] was < 100 nM.
As for `COc1ccc(-c2ccc(CNC(=O)Nc3cccc4c3CC(O)CC4)cc2)cc1` (stereo not drawn) [Example 1-31], the melting point was in the range of 215 to 216 °C. Further, in series [1], the IC50 was < 100 nM.
Taken in the same sequence, the figures for `Cc1ccc(-c2ccc(CNC(=O)Nc3cccc4c3CC(O)CC4)cc2)cc1` (stereo not drawn) [Example 1-32] were 211 to 212 °C and < 100 nM.
Taken in the same sequence, the figures for `O=C(NCc1ccc(-c2cccc(Cl)c2)cc1)Nc1cccc2c1CC(O)CC2` (stereo not drawn) [Example 1-33] were 195 to 196 °C and < 100 nM.
Taken in the same sequence, the figures for `O=C(NCc1ccc(-c2cc(Cl)ccc2Cl)cc1)Nc1cccc2c1CC(O)CC2` (stereo not drawn) [Example 1-34] were 139 to 140 °C and < 100 nM.
On to `COc1ccccc1-c1ccc(CNC(=O)Nc2cccc3c2CC(O)CC3)cc1` (stereo not drawn) [Example 1-35], for which the melting point was in the range of 128 to 129 °C. Moreover, the IC50 in series [1] was < 100 nM.
Compound `COc1ccc(OC)c(-c2ccc(CNC(=O)Nc3cccc4c3CC(O)CC4)cc2)c1` (stereo not drawn) [Example 1-36] registered a melting point of 113 to 114 °C. Further, the IC50 in series [1] is < 100 nM.
For `Cc1ccc(C)c(-c2ccc(CNC(=O)Nc3cccc4c3CC(O)CC4)cc2)c1` (stereo not drawn) [Example 1-37] the same measures were 181 to 182 °C and < 100 nM.
For `O=C(NCc1ccc(-c2cccc(F)c2)cc1)Nc1cccc2c1CC(O)CC2` (stereo not drawn) [Example 1-38] the same measures were 191 to 192 °C and < 100 nM.
Taken in the same sequence, the figures for `O=C(NCc1ccc(-c2cccc(OC(F)(F)F)c2)cc1)Nc1cccc2c1CC(O)CC2` (stereo not drawn) [Example 1-39] were 218 to 219 °C and < 100 nM.
`O=C(NCc1ccc(-c2ccc(Cl)cc2Cl)cc1)Nc1cccc2c1CC(O)CC2` (stereo not drawn) [Example 1-40]: the melting point was 177 to 178 °C. Moreover, the IC50 in series [1] is < 100 nM.
Taken in the same sequence, the figures for `O=C(NCc1ccc(-c2ccc(F)c(F)c2)cc1)Nc1cccc2c1CC(O)CC2` (stereo not drawn) [Example 1-41] were 191 to 192 °C and < 100 nM.
For `O=C(NCc1ccc(-c2ccc(F)c(Cl)c2)cc1)Nc1cccc2c1CC(O)CC2` (stereo not drawn) [Example 1-42] the same measures were 205 to 206 °C and < 100 nM.
For `O=C(NCc1ccc(-c2ccc(OC(F)(F)F)cc2)cc1)Nc1cccc2c1CC(O)CC2` (stereo not drawn) [Example 1-43] the same measures were 199 to 200 °C and < 100 nM.
For `O=C(NCc1ccc(-c2cccc(C(F)(F)F)c2)cc1)Nc1cccc2c1CC(O)CC2` (stereo not drawn) [Example 1-44], the melting point was in the range of 196 to 197 °C. Moreover, in series [1], the IC50 was < 100 nM.
For the compound `O=C(NCc1ccc(-c2ccc(F)cc2)cc1)Nc1cccc2c1CC(O)CC2` (stereo not drawn) [Example 1-45], the melting point was 201 to 202 °C. Besides, the IC50 in series [1] was < 100 nM.
For `CSc1ccc(-c2ccc(CNC(=O)Nc3cccc4c3CC(O)CC4)cc2)cc1` (stereo not drawn) [Example 1-46] the same measures were 216 to 217 °C and < 100 nM.
On to `O=C(Cc1cccc(-c2ccc(F)cc2)c1)Nc1cccc2c1CC(O)CC2` (stereo not drawn) [Example 3-2], for which, in series [1], the IC50 was in the range of 500 to 1000 nM.

One may read the IC50 as the concentration that gives 50% inhibition. As usually defined, the melting point is the temperature, or range, at which the solid turns liquid.
